Source: patent publication US20100267774A1, “P38 MAP KINASE INHIBITORS” (CHROMA THERAPEUTICS LTD., priority 2007, published 2010)

Experiments:
p38 MAP Kinase a = target: T1, p38 MAP Kinase a (Homo sapiens, UniProt Q16539); experiment: p38 MAP Kinase activity, radiometric filter-binding assay (Upstate); assay type: biochemical; conditions: IC50 range; read-out: Inhibitor activity versus p38 MAPKa
T1 construct: purchased Upstate (Dundee UK)
Experimental: The ability of compounds to inhibit p38 MAP a Kinase activity was measured in an assay performed by Upstate (Dundee UK). In a final reaction volume of 25 μL, p38 MAP Kinase a (5-10 mU) is incubated with 25 mM Tris pH 7.5, 0.002 mMEGTA, 0.33 mg/mL myelin basic protein, 10 mM MgAcetate and [g-33P-ATP] (specific activity approx. 500 cpm/pmol, concentration as required). The reaction is initiated by the addition of the MgATP mix. After incubation for 40 minutes at room temperature, the reaction is stopped by the addition of 5 μL of a 3% phosphoric acid solution. 10 μL of the reaction is then spotted onto a P30 filtermat and washed three times for 5 minutes in 75 mM phosphoric acid and once in methanol prior to drying and scintillation counting.
Duplicate data points are generated from a 1/3 log dilution series of a stock solution in DMSO. Nine dilutions steps are made from a top concentration of 10 μM, and a ‘no compound’ blank is included. The standard radiometric filter-binding assay is performed at an ATP concentration at, or close to, the Km. Data from scintillation counts are collected and subjected to free-fit analysis by Prism software. From the curve generated, the concentration giving 50% inhibition is determined and reported.

THP-1 TNFα release = experiment: LPS-stimulation of THP-1 cells, TNF-α release by ELISA; assay type: cell-based; conditions: Homo sapiens, THP-1, 6 h; read-out: Inhibitor activity versus THP-1 TNFα release
Experimental: THP-1 cells were plated in 100 μl at a density of 4×10^4 cells/well in V-bottomed 96 well tissue culture treated plates and incubated at 37° C. in 5% CO2 for 16 hrs. 2 hrs after the addition of the inhibitor in 100 μl of tissue culture media, the cells were stimulated with LPS (E coli strain 005:B5, Sigma) at a final concentration of 1 μg/ml and incubated at 37° C. in 5% CO2 for 6 hrs. TNF-α levels were measured from cell-free supernatants by sandwich ELISA (R&D Systems #QTA00B).

T1 sequence (Q16539 whole entry): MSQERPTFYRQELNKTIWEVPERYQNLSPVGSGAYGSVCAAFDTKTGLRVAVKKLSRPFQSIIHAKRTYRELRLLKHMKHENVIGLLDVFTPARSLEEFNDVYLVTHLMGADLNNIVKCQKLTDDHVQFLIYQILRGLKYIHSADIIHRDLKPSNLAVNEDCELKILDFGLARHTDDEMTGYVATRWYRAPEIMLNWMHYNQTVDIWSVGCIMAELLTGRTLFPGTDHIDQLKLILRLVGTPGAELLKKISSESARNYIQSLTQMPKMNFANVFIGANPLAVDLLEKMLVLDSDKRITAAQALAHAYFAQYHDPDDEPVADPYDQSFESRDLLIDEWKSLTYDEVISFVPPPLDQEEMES

| SMILES | IC50 (p38 MAP Kinase a) [nM] | IC50 (THP-1 TNFα release) [nM] |
| --- | --- | --- |
| CC(C)C[C@H](NCCc1ccc(-n2c(N)c(C(=O)c3ccc(F)cc3F)ccc2=O)cc1)C(=O)O[C@@H]1CC(C)CC[C@H]1C(C)C (stereo in doubt) [Example 13, (1R,2S,5S)-2-Isopropyl-5-methylcyclohexyl N-(2-{4-[6-amino-5-(2,4-difluorobenzoyl)-2-oxopyridin-1(2H)-yl]phenyl}ethyl)-L-leucinate] | > 1000 | < 100 |
| CC(C)(C)OC(=O)[C@@H](NCCc1ccc(-n2c(N)c(C(=O)c3ccc(F)cc3F)ccc2=O)cc1)C(C)(C)C [Example 8, tert-butyl N-[2-(4-{6-amino-5-[(2,4-difluorophenyl)carbonyl]-2-oxopyridin-1(2H)-yl}phenyl)ethyl]-3-methyl-L-valinate] | 100 to 1000 | > 1000 |
| CC(C)(C)OC[C@H](NCCc1ccc(-n2c(N)c(C(=O)c3ccc(F)cc3F)ccc2=O)cc1)C(=O)OC(C)(C)C [Example 12, tert-butyl N-[2-(4-{6-amino-5-[(2,4-difluorophenyl)carbonyl]-2-oxopyridin-1(2H)-yl}phenyl)ethyl]-O-tert-butyl-L-serinate] | 100 to 1000 | > 1000 |
| Nc1c(C(=O)c2ccc(F)cc2F)ccc(=O)n1-c1ccc(CCN[C@@H](Cc2ccccc2)C(=O)OC2CCCC2)cc1 [Example 22, Cyclopentyl N-[2-(4-{6-amino-5-[(2,4-difluorophenyl)carbonyl]-2-oxopyridin-1(2H)-yl}phenyl)ethyl]-L-phenylalaninate] | 100 to 1000 | < 100 |
| CC(C)C[C@H](NCCc1cc(F)c(-n2c(N)c(C(=O)c3ccc(F)cc3)ccc2=O)c(F)c1)C(=O)OC1CCCC1 [Example 24, Cyclopentyl N-(2-{4-[6-amino-5-(4-fluorobenzoyl)-2-oxopyridin-1(2H)-yl]-3,5-difluorophenyl}ethyl)-L-leucinate] | < 100 | < 100 |
| CC(C)C[C@H](NCCc1cc(F)c(-n2c(N)c(C(=O)c3ccc(F)cc3)ccc2=O)c(F)c1)C(=O)OC(C)(C)C [Example 25, tert-butyl N-(2-{4-[6-amino-5-(4-fluorobenzoyl)-2-oxopyridin-1(2H)-yl]-3,5-difluorophenyl}ethyl)-L-leucinate] | 100 to 1000 | < 100 |
| Nc1c(C(=O)c2ccc(F)cc2)ccc(=O)n1-c1c(F)cc(CCN[C@H](C(=O)OC2CCCC2)c2ccccc2)cc1F [Example 26, Cyclopentyl (2S)-[(2-{-4-[6-amino-5-(4-fluorobenzoyl)-2-oxopyridin-1(2H)-yl]-3,5-difluorophenyl}ethyl)amino](phenyl)acetate] | 100 to 1000 | < 100 |
| CC(C)(C)OC(=O)[C@@H](NCCc1cc(F)c(-n2c(N)c(C(=O)c3ccc(F)cc3)ccc2=O)c(F)c1)c1ccccc1 [Example 27, tert-butyl (2S)-[(2-{4-[6-amino-5-(4-fluorobenzoyl)-2-oxopyridin-1(2H)-yl]-3,5-difluorophenyl}ethyl)amino](phenyl)acetate] | 100 to 1000 | < 100 |
| Nc1c(C(=O)c2ccc(F)cc2)ccc(=O)n1-c1c(F)cc(CCN[C@H](C(=O)OC2CCCC2)C2CCCCC2)cc1F [Example 28, Cyclopentyl (2S)-[(2-{4-[6-amino-5-(4-fluorobenzoyl)-2-oxopyridin-1(2H)-yl]-3,5-difluorophenyl}ethyl)amino](cyclohexyl)acetate] | 100 to 1000 | 100 to 1000 |
| CC(C)C[C@@H](NCCc1cc(F)c(-n2c(N)c(C(=O)c3ccc(F)cc3)ccc2=O)c(F)c1)C(=O)OC1CCCC1 [Example 29, Cyclopentyl N-(2-{4-[6-amino-5-(4-fluorobenzoyl)-2-oxopyridin-1(2H)-yl]-3,5-difluorophenyl}ethyl)-D-leucinate] | 100 to 1000 | < 100 |
| CC(C)C[C@@H](NCCc1cc(F)c(-n2c(N)c(C(=O)c3ccc(F)cc3)ccc2=O)c(F)c1)C(=O)OC(C)(C)C [Example 30, tert-butyl N-(2-{4-[6-amino-5-(4-fluorobenzoyl)-2-oxopyridin-1(2H)-yl]-3,5-difluorophenyl}ethyl)-D-leucinate] | 100 to 1000 | 100 to 1000 |
| CC(C)(C)OC(=O)[C@@H](NCCc1cc(F)c(-n2c(N)c(C(=O)c3ccc(F)cc3F)ccc2=O)c(F)c1)c1ccccc1 [Example 35, tert-butyl (2S)-[(2-{4-[6-amino-5-(2,4-difluorobenzoyl)-2-oxopyridin-1(2H)-yl]-3,5-difluorophenyl}ethyl)amino](phenyl)acetate] |  | < 100 |
| Nc1c(C(=O)c2ccc(F)cc2F)ccc(=O)n1-c1c(F)cc(CCN[C@H](C(=O)OC2CCCC2)c2ccc(F)cc2)cc1F [Example 47, Cyclopentyl (2S)-{[2-(4-{6-amino-5-[(2,4-difluorophenyl)carbonyl]-2-oxopyridin-1(2H)-yl}-3,5-difluorophenyl)ethyl]amino}(4-fluorophenyl)ethanoate] |  | < 100 |
| CC(C)(C)OC(=O)[C@@H](NCCc1cc(F)c(-n2c(N)c(C(=O)c3ccc(F)cc3F)ccc2=O)c(F)c1)c1ccc(F)cc1 [Example 48, tert-butyl (2S)-{[2-(4-{6-amino-5-[(2,4-difluorophenyl)carbonyl]-2-oxopyridin-1(2H)-yl}-3,5-difluorophenyl)ethyl]amino}(4-fluorophenyl)ethanoate] |  | < 100 |
| CC(C)C[C@H](NCCc1ccc(-n2c(N)c(C(=O)c3ccc(F)cc3F)ccc2=O)s1)C(=O)O [Example 71, N-(2-{5-[6-amino-5-(2,4-difluorobenzoyl)-2-oxopyridin-1(2H)-yl]-2-thienyl}ethyl)-L-leucine] | 100 to 1000 |  |

Further lines, results first:

| IC50 (p38 MAP Kinase a) [nM] | IC50 (THP-1 TNFα release) [nM] | SMILES |
| --- | --- | --- |
| 100 to 1000 | < 100 | Nc1c(C(=O)c2ccc(F)cc2F)ccc(=O)n1-c1ccc(CCN[C@H](C(=O)OC2CCCC2)c2ccccc2)cc1 [Example 1] |
| 100 to 1000 | < 100 | CC(C)[C@H](NCCc1ccc(-n2c(N)c(C(=O)c3ccc(F)cc3F)ccc2=O)cc1)C(=O)OC1CCCC1 [Example 5, Cyclopentyl N-[2-(4-{6-amino-5-[(2,4-difluorophenyl)carbonyl]-2-oxopyridin-1(2H)-yl}phenyl)ethyl]-L-valinate] |
| 100 to 1000 | 100 to 1000 | CC(C)[C@H](NCCc1ccc(-n2c(N)c(C(=O)c3ccc(F)cc3F)ccc2=O)cc1)C(=O)OC(C)(C)C [Example 6, tert-butyl N-[2-(4-{6-amino-5-[(2,4-difluorophenyl)carbonyl]-2-oxopyridin-1(2H)-yl}phenyl)ethyl]-L-valinate] |
| 100 to 1000 | > 1000 | CC(C)(C)[C@H](NCCc1ccc(-n2c(N)c(C(=O)c3ccc(F)cc3F)ccc2=O)cc1)C(=O)OC1CCCC1 [Example 7, Cyclopentyl N-[2-(4-{6-amino-5-[(2,4-difluorophenyl)carbonyl]-2-oxopyridin-1(2H)-yl}phenyl)ethyl]-3-methyl-L-valinate] |
| 100 to 1000 | 100 to 1000 | CC(C)C[C@@H](NCCc1ccc(-n2c(N)c(C(=O)c3ccc(F)cc3F)ccc2=O)cc1)C(=O)OC1CCCC1 [Example 9, Cyclopentyl N-[2-(4-{6-amino-5-[(2,4-difluorophenyl)carbonyl]-2-oxopyridin-1(2H)-yl}phenyl)ethyl]-D-leucinate] |
| 100 to 1000 | < 100 | CC(C)(C)OC[C@H](NCCc1ccc(-n2c(N)c(C(=O)c3ccc(F)cc3F)ccc2=O)cc1)C(=O)OC1CCCC1 [Example 11, Cyclopentyl N-[2-(4-{6-amino-5-[(2,4-difluorophenyl)carbonyl]-2-oxopyridin-1(2H)-yl}phenyl)ethyl]-O-tert-butyl-L-serinate] |
| 100 to 1000 | > 1000 | C[C@@H](OC(C)(C)C)[C@H](NCCc1ccc(-n2c(N)c(C(=O)c3ccc(F)cc3F)ccc2=O)cc1)C(=O)OC1CCCC1 [Example 15, Cyclopentyl N-[2-(4-{6-amino-5-[(2,4-difluorophenyl)carbonyl]-2-oxopyridin-1(2H)-yl}phenyl)ethyl]-O-tert-butyl-L-threoninate] |
| < 100 | < 100 | C[C@@H](O)[C@H](NCCc1ccc(-n2c(N)c(C(=O)c3ccc(F)cc3F)ccc2=O)cc1)C(=O)OC1CCCC1 [Example 17, Cyclopentyl N-[2-(4-{6-amino-5-[(2,4-difluorophenyl)carbonyl]-2-oxopyridin-1(2H)-yl}phenyl)ethyl]-L-threoninate] |
| 100 to 1000 | < 100 | CC[C@H](C)[C@H](NCCc1ccc(-n2c(N)c(C(=O)c3ccc(F)cc3F)ccc2=O)cc1)C(=O)OC1CCCC1 [Example 18, Cyclopentyl N-[2-(4-{6-amino-5-[(2,4-difluorophenyl)carbonyl]-2-oxopyridin-1(2H)-yl}phenyl)ethyl]-L-isoleucinate] |
| < 100 | < 100 | C[C@H](NCCc1ccc(-n2c(N)c(C(=O)c3ccc(F)cc3F)ccc2=O)cc1)C(=O)OC1CCCC1 [Example 20, Cyclopentyl N-[2-(4-{6-amino-5-[(2,4-difluorophenyl)carbonyl]-2-oxopyridin-1(2H)-yl}phenyl)ethyl]-L-alaninate] |
